“And” between values parts separate entries of the source, which are not always exact repeats. Equal entries are not always repeated. Where two headings read alike, the source gives them in different places.
Assay: Pharmacokinetics after repeated oral administration of 250 μg/kg and 35 μg/kg of fluralaner in dogs after feeding
Format: in vivo, beagle dogs
Settings: for concentration at 24 h / concentration at 48 h / concentration at 72 h / concentration at 96 h / concentration at 120 h / concentration at 144 h: beagle, dog, plasma, po
Method: The first objective is to obtain the pharmacokinetic parameters after repeated oral administration of […] and 35 μg/kg of fluralaner in dogs after feeding.
The second objective is to investigate the pharmacodynamics between the fluralaner plasmatic dose and the effectiveness against ticks. • IVP: Investigational Veterinary Product, is pure Fluralaner+DMSO (250 μg/kg on Days 0 to 3 (0.25 mL/kg), then 35 μg/kg on Days 4 to 9 (0.35 mL/kg), then 600 μg/kg on Day 11) • Control product is DMSO (0.25 mL/kg on Days 0 to 3, then 0.35 mL/kg on Days 4 to 9)
On Days 0, 1, 2 and 3, all dogs assigned to group 2 received the Investigational Veterinary Product. On Days 0 to 3 all dogs in group 1 received the control product at a volume equal to the dogs in group 2. Dogs assigned to group 1 received the control product and served as Placebo controls. The quantity of Investigational Veterinary Product and control product administered was calculated according to the dog's individual body weight measured on Day −1. […]
On days of administration of pre-Investigational Veterinary Product or Control Product, dogs were fed (the same dog food) approximately half of their normal daily ration 30 minutes to 35 minutes prior to administration. Food consumed by the time of administration was calculated and recorded. The remainder of their normal daily ration was fed immediately after administration.
The PK parameters of fluralaner were calculated using a non-compartmental approach.
The following rules were applied for the calculation of the PK parameters: • All the plasma concentrations, validated by the bioanalytical laboratory, were used for the PK analysis. • The actual blood sampling times were used throughout. • Concentrations below the Limit of Quantification (LOQ) value were considered as zero from time zero (pre-dose) up to the time at which the first quantifiable concentration above the LOQ value was observed. Concentrations below the LOQ value between two quantifiable concentrations were considered as missing. Trailing concentrations below the LOQ value were not used in calculations.
Cmax the observed maximum concentration in plasma measured after dosing.
λz the terminal rate constant (λz) was estimated by log-linear regression analysis on data points visually assessed, to be on the terminal log-linear phase. For the slope of the terminal elimination phase to be accepted as reliable, the following criteria were used: • the terminal data points were apparently randomly distributed about a single straight line (on visual inspection), • a minimum of three data points, including the last measured data point and excluding Cmax, were available for the regression.
t1/2 the terminal plasma half-life (t1/2) was calculated according to the following equation: […]

Cc1cc(C2=NOC(c3cc(Cl)cc(Cl)c3)(C(F)(F)F)C2)ccc1C(=O)NCC(=O)NCC(F)(F)F (stereo not drawn) [fluralaner, Fluralaner]
fluralaner concentration levels, individual animal (24 h, oral 250 μg/kg Days 0-3, 35 μg/kg Days 4-9, 600 μg/kg Day 11, dogs): 142 ng/mL and 158 ng/mL and 129 ng/mL
fluralaner concentration levels, individual animal (48 h, oral 250 μg/kg Days 0-3, 35 μg/kg Days 4-9, 600 μg/kg Day 11, dogs): 269 ng/mL and 283 ng/mL and 253 ng/mL
fluralaner concentration levels, individual animal (72 h, oral 250 μg/kg Days 0-3, 35 μg/kg Days 4-9, 600 μg/kg Day 11, dogs): 381 ng/mL and 378 ng/mL and 373 ng/mL
fluralaner concentration levels, individual animal (96 h, oral 250 μg/kg Days 0-3, 35 μg/kg Days 4-9, 600 μg/kg Day 11, dogs): 496 ng/mL and 572 ng/mL and 515 ng/mL
fluralaner concentration levels, individual animal (120 h, oral 250 μg/kg Days 0-3, 35 μg/kg Days 4-9, 600 μg/kg Day 11, dogs): 465 ng/mL and 535 ng/mL and 554 ng/mL
fluralaner concentration levels, individual animal (144 h, oral 250 μg/kg Days 0-3, 35 μg/kg Days 4-9, 600 μg/kg Day 11, dogs): 510 ng/mL and 447 ng/mL and 454 ng/mL
fluralaner concentration levels, individual animal (168 h, oral 250 μg/kg Days 0-3, 35 μg/kg Days 4-9, 600 μg/kg Day 11, dogs): 521 ng/mL and 536 ng/mL and 520 ng/mL
fluralaner concentration levels, individual animal (192 h, oral 250 μg/kg Days 0-3, 35 μg/kg Days 4-9, 600 μg/kg Day 11, dogs): 456 ng/mL and 558 ng/mL and 455 ng/mL
fluralaner concentration levels, individual animal (216 h, oral 250 μg/kg Days 0-3, 35 μg/kg Days 4-9, 600 μg/kg Day 11, dogs): 468 ng/mL and 551 ng/mL and 472 ng/mL and 493 ng/mL
fluralaner concentration levels, individual animal (240 h, oral 250 μg/kg Days 0-3, 35 μg/kg Days 4-9, 600 μg/kg Day 11, dogs): 423 ng/mL and 368 ng/mL and 724 ng/mL and 422 ng/mL
fluralaner concentration levels, individual animal (384 h, oral 250 μg/kg Days 0-3, 35 μg/kg Days 4-9, 600 μg/kg Day 11, dogs): 893 ng/mL and 523 ng/mL and 715 ng/mL and 1000 ng/mL
fluralaner concentration levels, individual animal (528 h, oral 250 μg/kg Days 0-3, 35 μg/kg Days 4-9, 600 μg/kg Day 11, dogs): 267 ng/mL and 373 ng/mL and 235 ng/mL and 517 ng/mL and 283 ng/mL
fluralaner concentration levels, individual animal (624 h, oral 250 μg/kg Days 0-3, 35 μg/kg Days 4-9, 600 μg/kg Day 11, dogs): 223 ng/mL and 280 ng/mL and 182 ng/mL and 403 ng/mL and 227 ng/mL
fluralaner concentration levels, individual animal (720 h, oral 250 μg/kg Days 0-3, 35 μg/kg Days 4-9, 600 μg/kg Day 11, dogs): 285 ng/mL and 275 ng/mL and 248 ng/mL and 187 ng/mL
steady state concentrations (after the fourth dose application 250 μg/kg per day (on Day 3)): not been reached
concentration at 24 h (24 h, oral 250 μg/kg Days 0-3, 35 μg/kg Days 4-9, 600 μg/kg Day 11, dogs, read-out: fluralaner concentration levels, individual animal): 160 ng/mL
concentration at 24 h (24 h, oral 250/35/600 μg/kg regimen, dogs, n=6, read-out: fluralaner concentration levels, GeoMean): 145 ng/mL
concentration at 24 h (24 h, oral 250/35/600 μg/kg regimen, dogs, n=6, read-out: fluralaner concentration levels, Maximum): 160 ng/mL
concentration at 24 h (24 h, oral 250/35/600 μg/kg regimen, dogs, n=6, read-out: fluralaner concentration levels, Mean): 146 ng/mL
concentration at 24 h (24 h, oral 250/35/600 μg/kg regimen, dogs, n=6, read-out: fluralaner concentration levels, Median): 146 ng/mL
concentration at 24 h (24 h, oral 250/35/600 μg/kg regimen, dogs, n=6, read-out: fluralaner concentration levels, Minimum): 129 ng/mL
concentration at 48 h (48 h, oral 250 μg/kg Days 0-3, 35 μg/kg Days 4-9, 600 μg/kg Day 11, dogs, read-out: fluralaner concentration levels, individual animal): 257 ng/mL
concentration at 48 h (48 h, oral 250/35/600 μg/kg regimen, dogs, n=6, read-out: fluralaner concentration levels, GeoMean): 269 ng/mL
concentration at 48 h (48 h, oral 250/35/600 μg/kg regimen, dogs, n=6, read-out: fluralaner concentration levels, Maximum): 312 ng/mL
concentration at 48 h (48 h, oral 250/35/600 μg/kg regimen, dogs, n=6, read-out: fluralaner concentration levels, Mean): 270 ng/mL
concentration at 48 h (48 h, oral 250/35/600 μg/kg regimen, dogs, n=6, read-out: fluralaner concentration levels, Median): 263 ng/mL
concentration at 48 h (48 h, oral 250/35/600 μg/kg regimen, dogs, n=6, read-out: fluralaner concentration levels, Minimum): 245 ng/mL
concentration at 72 h (72 h, oral 250 μg/kg Days 0-3, 35 μg/kg Days 4-9, 600 μg/kg Day 11, dogs, read-out: fluralaner concentration levels, individual animal): 366 ng/mL
concentration at 72 h (72 h, oral 250/35/600 μg/kg regimen, dogs, n=6, read-out: fluralaner concentration levels, GeoMean): 386 ng/mL
concentration at 72 h (72 h, oral 250/35/600 μg/kg regimen, dogs, n=6, read-out: fluralaner concentration levels, Maximum): 469 ng/mL
concentration at 72 h (72 h, oral 250/35/600 μg/kg regimen, dogs, n=6, read-out: fluralaner concentration levels, Mean): 388 ng/mL
concentration at 72 h (72 h, oral 250/35/600 μg/kg regimen, dogs, n=6, read-out: fluralaner concentration levels, Median): 376 ng/mL
concentration at 72 h (72 h, oral 250/35/600 μg/kg regimen, dogs, n=6, read-out: fluralaner concentration levels, Minimum): 361 ng/mL
concentration at 96 h (96 h, oral 250 μg/kg Days 0-3, 35 μg/kg Days 4-9, 600 μg/kg Day 11, dogs, read-out: fluralaner concentration levels, individual animal): 497 ng/mL
concentration at 96 h (96 h, oral 250/35/600 μg/kg regimen, dogs, n=6, read-out: fluralaner concentration levels, GeoMean): 524 ng/mL
concentration at 96 h (96 h, oral 250/35/600 μg/kg regimen, dogs, n=6, read-out: fluralaner concentration levels, Maximum): 602 ng/mL
concentration at 96 h (96 h, oral 250/35/600 μg/kg regimen, dogs, n=6, read-out: fluralaner concentration levels, Mean): 526 ng/mL
concentration at 96 h (96 h, oral 250/35/600 μg/kg regimen, dogs, n=6, read-out: fluralaner concentration levels, Median): 506 ng/mL
concentration at 96 h (96 h, oral 250/35/600 μg/kg regimen, dogs, n=6, read-out: fluralaner concentration levels, Minimum): 471 ng/mL
concentration at 120 h (120 h, oral 250 μg/kg Days 0-3, 35 μg/kg Days 4-9, 600 μg/kg Day 11, dogs, read-out: fluralaner concentration levels, individual animal): 495 ng/mL
concentration at 120 h (120 h, oral 250/35/600 μg/kg regimen, dogs, n=6, read-out: fluralaner concentration levels, GeoMean): 508 ng/mL
concentration at 120 h (120 h, oral 250/35/600 μg/kg regimen, dogs, n=6, read-out: fluralaner concentration levels, Maximum): 554 ng/mL
concentration at 120 h (120 h, oral 250/35/600 μg/kg regimen, dogs, n=6, read-out: fluralaner concentration levels, Mean): 509 ng/mL
concentration at 120 h (120 h, oral 250/35/600 μg/kg regimen, dogs, n=6, read-out: fluralaner concentration levels, Median): 515 ng/mL
concentration at 120 h (120 h, oral 250/35/600 μg/kg regimen, dogs, n=6, read-out: fluralaner concentration levels, Minimum): 465 ng/mL
concentration at 144 h (144 h, oral 250 μg/kg Days 0-3, 35 μg/kg Days 4-9, 600 μg/kg Day 11, dogs, read-out: fluralaner concentration levels, individual animal): 497 ng/mL
concentration at 144 h (144 h, oral 250/35/600 μg/kg regimen, dogs, n=6, read-out: fluralaner concentration levels, GeoMean): 491 ng/mL
concentration at 144 h (144 h, oral 250/35/600 μg/kg regimen, dogs, n=6, read-out: fluralaner concentration levels, Maximum): 550 ng/mL
concentration at 144 h (144 h, oral 250/35/600 μg/kg regimen, dogs, n=6, read-out: fluralaner concentration levels, Mean): 492 ng/mL
concentration at 144 h (144 h, oral 250/35/600 μg/kg regimen, dogs, n=6, read-out: fluralaner concentration levels, Median): 496 ng/mL
concentration at 144 h (144 h, oral 250/35/600 μg/kg regimen, dogs, n=6, read-out: fluralaner concentration levels, Minimum): 447 ng/mL

— US12714696B2, “Low dose fluralaner compositions for protection against parasitic invertebrate pest” (VIRBAC, priority 2019, dated 2026)
